Read-outs that look alike come from different tables or passages of the source.
Assays:
[1] = test system: SARS-CoV-2 D614G
[2] = test system: SARS-CoV-2 D614G; remark: listed apart in the source

Row | SMILES | EC50 [1] [µM] | EC90 [1] [µM] | EC50 [2] [µM] | EC90 [2] [µM]
1 | CCN(CC)CCCC(C)Nc1ccnc2cc(Cl)ccc12 (centres unmarked) [Chloroquine] | 1.1 ± 0.07 | 3.5 ± 0.8 | > 10 | > 10
2 | OC(c1cc(C(F)(F)F)nc2c(C(F)(F)F)cccc12)C1CCCCN1 (centres unmarked) [Mefloquine] | 0.6 ± 0.03 | – | – | –

From article PMC8874959 (Viruses, 2022)
